Measurements from ChEMBL document CHEMBL4049437, “Benzoisoquinolinediones as Potent and Selective Inhibitors of BRPF2 and TAF1/TAF1L Bromodomains” (J Med Chem, 2017).
In brackets after ≈: the same amount, converted by molar mass. Activity calls are given as the source filed them. The rule behind the calls is not given here.

Tests used:
[1] = target: T1, Bromodomain-containing protein 1 (Homo sapiens, UniProt O95696)
T1 sequence (O95696 whole entry): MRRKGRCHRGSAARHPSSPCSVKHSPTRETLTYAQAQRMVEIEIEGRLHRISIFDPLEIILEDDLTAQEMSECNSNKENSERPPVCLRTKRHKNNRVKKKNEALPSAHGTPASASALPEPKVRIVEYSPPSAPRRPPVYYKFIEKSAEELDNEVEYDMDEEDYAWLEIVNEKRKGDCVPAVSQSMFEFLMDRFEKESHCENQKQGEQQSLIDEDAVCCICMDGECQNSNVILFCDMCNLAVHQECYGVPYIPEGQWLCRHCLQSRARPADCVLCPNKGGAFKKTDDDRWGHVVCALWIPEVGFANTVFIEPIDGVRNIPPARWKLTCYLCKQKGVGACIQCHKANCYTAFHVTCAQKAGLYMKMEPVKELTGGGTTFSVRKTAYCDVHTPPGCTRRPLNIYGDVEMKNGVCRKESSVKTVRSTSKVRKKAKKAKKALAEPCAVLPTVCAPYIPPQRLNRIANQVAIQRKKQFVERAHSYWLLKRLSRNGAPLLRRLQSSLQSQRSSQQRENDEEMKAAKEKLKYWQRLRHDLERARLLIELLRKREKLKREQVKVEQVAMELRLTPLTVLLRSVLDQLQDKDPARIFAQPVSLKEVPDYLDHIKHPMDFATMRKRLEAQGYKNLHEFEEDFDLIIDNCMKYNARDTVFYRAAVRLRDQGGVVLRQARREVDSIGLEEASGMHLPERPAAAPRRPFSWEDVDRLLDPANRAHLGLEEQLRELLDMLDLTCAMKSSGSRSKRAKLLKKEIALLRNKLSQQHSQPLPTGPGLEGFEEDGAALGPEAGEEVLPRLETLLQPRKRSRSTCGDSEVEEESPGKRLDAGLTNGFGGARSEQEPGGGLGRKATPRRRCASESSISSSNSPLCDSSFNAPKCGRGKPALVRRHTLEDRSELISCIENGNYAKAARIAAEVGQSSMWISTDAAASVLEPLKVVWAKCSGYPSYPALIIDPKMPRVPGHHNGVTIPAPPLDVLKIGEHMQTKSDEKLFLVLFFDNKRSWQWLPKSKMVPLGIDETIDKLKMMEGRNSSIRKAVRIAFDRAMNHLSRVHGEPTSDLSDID

[2] = target: T2, Transcription initiation factor TFIID subunit 1 (Homo sapiens, UniProt P21675); assay: Stabilization of human GST-tagged TAF1 BD2 (1519 to 1651 residues) expressed in Escherichia coli BL21 (DE3) assessed as increase in melting temperature at 10 uM by SYPRO Orange-dye based fluorescence thermal shift assay
T2 sequence (P21675 whole entry, the tested form may be a part): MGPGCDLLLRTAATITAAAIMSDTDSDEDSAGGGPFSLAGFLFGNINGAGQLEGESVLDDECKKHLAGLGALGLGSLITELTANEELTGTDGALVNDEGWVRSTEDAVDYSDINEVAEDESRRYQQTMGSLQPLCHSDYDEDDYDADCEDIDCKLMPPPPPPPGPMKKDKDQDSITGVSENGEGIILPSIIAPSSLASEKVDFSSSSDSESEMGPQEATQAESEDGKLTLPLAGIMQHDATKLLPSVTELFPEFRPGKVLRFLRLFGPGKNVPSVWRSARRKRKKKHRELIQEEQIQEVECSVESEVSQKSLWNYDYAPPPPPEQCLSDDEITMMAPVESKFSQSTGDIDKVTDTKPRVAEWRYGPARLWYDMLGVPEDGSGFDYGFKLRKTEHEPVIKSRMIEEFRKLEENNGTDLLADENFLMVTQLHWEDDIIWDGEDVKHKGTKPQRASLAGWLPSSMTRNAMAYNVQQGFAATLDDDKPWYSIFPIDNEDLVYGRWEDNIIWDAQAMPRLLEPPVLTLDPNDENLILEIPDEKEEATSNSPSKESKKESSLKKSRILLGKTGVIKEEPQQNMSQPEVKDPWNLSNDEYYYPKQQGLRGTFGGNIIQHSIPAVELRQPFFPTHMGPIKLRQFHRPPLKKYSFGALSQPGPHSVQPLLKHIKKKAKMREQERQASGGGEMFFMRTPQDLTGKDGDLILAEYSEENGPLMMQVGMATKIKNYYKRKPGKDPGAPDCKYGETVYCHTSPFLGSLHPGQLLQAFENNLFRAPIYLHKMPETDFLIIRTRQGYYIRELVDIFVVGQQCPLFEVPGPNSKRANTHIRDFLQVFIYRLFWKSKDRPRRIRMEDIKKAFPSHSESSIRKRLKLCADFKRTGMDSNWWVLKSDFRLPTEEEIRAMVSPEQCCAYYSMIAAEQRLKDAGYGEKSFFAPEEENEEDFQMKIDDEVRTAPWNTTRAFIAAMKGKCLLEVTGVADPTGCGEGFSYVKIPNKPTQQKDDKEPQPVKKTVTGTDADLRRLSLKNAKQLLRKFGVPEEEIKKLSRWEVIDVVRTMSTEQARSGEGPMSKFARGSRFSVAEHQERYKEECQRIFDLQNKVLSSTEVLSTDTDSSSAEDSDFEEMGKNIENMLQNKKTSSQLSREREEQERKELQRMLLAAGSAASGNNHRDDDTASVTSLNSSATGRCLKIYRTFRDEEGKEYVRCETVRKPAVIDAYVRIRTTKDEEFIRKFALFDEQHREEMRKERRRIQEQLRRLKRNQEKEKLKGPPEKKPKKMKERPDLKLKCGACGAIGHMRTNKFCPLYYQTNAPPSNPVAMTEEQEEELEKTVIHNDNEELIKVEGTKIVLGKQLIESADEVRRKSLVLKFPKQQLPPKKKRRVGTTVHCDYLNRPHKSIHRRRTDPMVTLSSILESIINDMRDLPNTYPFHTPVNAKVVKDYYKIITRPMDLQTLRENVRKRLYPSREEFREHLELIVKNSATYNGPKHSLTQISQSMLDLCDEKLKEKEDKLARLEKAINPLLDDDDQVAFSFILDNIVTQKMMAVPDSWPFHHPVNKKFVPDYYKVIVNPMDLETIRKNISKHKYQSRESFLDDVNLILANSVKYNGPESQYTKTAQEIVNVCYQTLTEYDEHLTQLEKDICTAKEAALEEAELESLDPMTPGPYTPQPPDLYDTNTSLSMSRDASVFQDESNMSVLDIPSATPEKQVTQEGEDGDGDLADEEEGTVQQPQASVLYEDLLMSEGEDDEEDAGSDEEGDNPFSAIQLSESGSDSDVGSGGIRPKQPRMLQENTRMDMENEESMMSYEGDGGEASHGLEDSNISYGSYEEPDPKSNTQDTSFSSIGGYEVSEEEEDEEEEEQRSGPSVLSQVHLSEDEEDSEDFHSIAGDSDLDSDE

[3] = target: T3, Bromodomain-containing protein 4 (Homo sapiens, UniProt O60885); assay: (§1) Inhibition of BRD4 BD2 (unknown origin) preincubated for 15 mins followed by addition of C-terminal biotinylated synthetic K5,8,12,16 tetra-acetylated histone H4 (1 to 20 residues) peptide as substrate measured after 1 hr by TR-FRET assay
[4] = target: T4, Transcription initiation factor TFIID subunit 1-like (Homo sapiens, UniProt Q8IZX4); assay: Stabilization of human GST-tagged TAF1L BD2 (1517 to 1649 residues) expressed in Escherichia coli BL21 (DE3) at 10 uM by SYPRO Orange-dye based fluorescence thermal shift assay
[5] = target: Histone acetyltransferase p300 (Homo sapiens) (UniProt Q09472); assay: Inhibition of EP300 (unknown origin) assessed as change in melting temperature at 10 uM by SYPRO Orange-dye based fluorescence thermal shift assay
[6] = target: T2, Transcription initiation factor TFIID subunit 1; assay: as §1, with “human GST-tagged TAF1” for “BRD4”, “(1519 to 1651 residues) expressed in Escherichia coli BL21 (DE3)-R3-pRARE2” for “(unknown origin)”
[7] = Aqueous solubility of the compound in DMSO at pH 6.5 after 24 hrs by HPLC-MS/MS analysis; format: physicochemical; details: pH 6.5, 24 h
Peregrin (Homo sapiens) [8] = target: T5, Peregrin (Homo sapiens) (UniProt P55201); assay: Inhibition of Halo-tagged histone H4 binding to C-terminally NanoLuc luciferase conjugated BRPF1 BD (626 to 732 residues) (unknown origin) expressed in human HCT116 cells after 4 to 24 hrs by BRET assay; format: cell-based
T5 sequence (whole entry): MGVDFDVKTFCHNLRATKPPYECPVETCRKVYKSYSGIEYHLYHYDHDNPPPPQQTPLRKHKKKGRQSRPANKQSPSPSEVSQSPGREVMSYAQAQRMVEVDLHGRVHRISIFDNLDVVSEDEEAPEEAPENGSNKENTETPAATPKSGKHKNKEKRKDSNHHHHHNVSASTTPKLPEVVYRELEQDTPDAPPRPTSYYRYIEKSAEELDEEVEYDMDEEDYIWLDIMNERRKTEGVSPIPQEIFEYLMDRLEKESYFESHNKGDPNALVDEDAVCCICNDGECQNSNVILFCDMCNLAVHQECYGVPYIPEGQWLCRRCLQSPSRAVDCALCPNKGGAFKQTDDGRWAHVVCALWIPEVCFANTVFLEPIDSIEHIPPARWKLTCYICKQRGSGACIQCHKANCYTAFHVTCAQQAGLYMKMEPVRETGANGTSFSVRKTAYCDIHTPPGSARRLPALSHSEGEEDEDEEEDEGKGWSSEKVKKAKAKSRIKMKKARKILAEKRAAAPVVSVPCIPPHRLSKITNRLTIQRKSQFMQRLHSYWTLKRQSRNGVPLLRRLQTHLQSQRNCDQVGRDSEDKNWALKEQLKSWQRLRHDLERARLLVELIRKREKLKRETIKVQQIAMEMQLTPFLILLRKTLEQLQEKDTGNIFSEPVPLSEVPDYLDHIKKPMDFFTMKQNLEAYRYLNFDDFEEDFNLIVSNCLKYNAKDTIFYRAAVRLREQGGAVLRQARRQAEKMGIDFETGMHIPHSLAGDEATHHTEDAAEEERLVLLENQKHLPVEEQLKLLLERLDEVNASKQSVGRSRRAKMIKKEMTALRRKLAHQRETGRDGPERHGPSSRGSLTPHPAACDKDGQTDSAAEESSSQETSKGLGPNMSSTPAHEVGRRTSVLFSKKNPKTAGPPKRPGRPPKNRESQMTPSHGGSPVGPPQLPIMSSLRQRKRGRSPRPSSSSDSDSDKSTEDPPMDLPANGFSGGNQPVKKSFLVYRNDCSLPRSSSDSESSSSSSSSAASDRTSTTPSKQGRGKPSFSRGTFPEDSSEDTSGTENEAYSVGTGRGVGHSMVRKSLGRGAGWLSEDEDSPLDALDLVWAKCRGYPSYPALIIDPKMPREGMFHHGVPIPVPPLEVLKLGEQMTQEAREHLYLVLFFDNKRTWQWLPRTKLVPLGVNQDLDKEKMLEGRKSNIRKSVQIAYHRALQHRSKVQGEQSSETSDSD

[9] = target: Chromatin remodeling regulator CECR2 (Homo sapiens) (UniProt Q9BXF3); assay: Inhibition of CECR2 (unknown origin) assessed as change in melting temperature at 10 uM by SYPRO Orange-dye based fluorescence thermal shift assay
[10] = target: Bromodomain-containing protein 1 (Homo sapiens) (UniProt O95696); assay: Binding affinity to human BRPF2 (563 to 688 residues) expressed in Escherichia coli BL21 (DE3) assessed as thermal stability by measuring change in melting temperature at 10 uM by SYPRO Orange-dye based fluorescence assay
[11] = target: T1, Bromodomain-containing protein 1; assay: Inhibition of human BRPF2 (563 to 688 residues) expressed in Escherichia coli BL21 (DE3)-R3-pRARE2 preincubated for 15 mins followed by addition of C-terminal biotinylated synthetic K5,12 diacetylated histone H4 (1 to 20 residues) peptide as substrate measured after 1 hr by TR-FRET assay
Peregrin = target: T6, Peregrin (Homo sapiens, UniProt P55201); assay: Inhibition of His-tagged BRPF1 (626 to 740 residues) (unknown origin) preincubated for 15 mins followed by addition of C-terminal biotinylated synthetic K5,12 diacetylated histone H4 (1 to 20 residues) peptide as substrate measured after 1 hr by TR-FRET assay
T6 sequence (P55201 whole entry): T5 sequence (whole entry)

[12] = target: T3, Bromodomain-containing protein 4
Homo sapiens = species: Homo sapiens; assay: Selectivity ratio of IC50 for His-tagged BRPF1 (626 to 740 residues) (unknown origin) to IC50 for human BRPF2 (563 to 688 residues) expressed in Escherichia coli BL21 (DE3) by TR-FRET assay
[13] = target: ATPase family AAA domain-containing protein 2B (Homo sapiens) (UniProt Q9ULI0); assay: Inhibition of ATAD2B (unknown origin) assessed as change in melting temperature at 10 uM by SYPRO Orange-dye based fluorescence thermal shift assay
[14] = target: Bromodomain adjacent to zinc finger domain protein 2A (Homo sapiens) (UniProt Q9UIF9); assay: Inhibition of BAZ2A (unknown origin) assessed as change in melting temperature at 10 uM by SYPRO Orange-dye based fluorescence thermal shift assay
[15] = target: T3, Bromodomain-containing protein 4; assay: Inhibition of BRD4 BD2 (unknown origin) assessed as change in melting temperature at 10 uM by SYPRO Orange-dye based fluorescence thermal shift assay
[16] = target: Bromodomain and WD repeat-containing protein 1 (Homo sapiens) (UniProt Q9NSI6); assay: Inhibition of WDR9 BD2 (unknown origin) assessed as change in melting temperature at 10 uM by SYPRO Orange-dye based fluorescence thermal shift assay
[17] = target: Bromodomain-containing protein 3 (Homo sapiens) (UniProt Q15059); assay: Inhibition of BRD3 BD2 (unknown origin) assessed as change in melting temperature at 10 uM by SYPRO Orange-dye based fluorescence thermal shift assay
[18] = target: Histone-lysine N-methyltransferase ASH1L (Homo sapiens) (UniProt Q9NR48); assay: Inhibition of ASH1L (unknown origin) assessed as change in melting temperature at 10 uM by SYPRO Orange-dye based fluorescence thermal shift assay
[19] = target: Bromodomain adjacent to zinc finger domain protein 2B (Homo sapiens) (UniProt Q9UIF8); assay: Inhibition of BAZ2B (unknown origin) assessed as change in melting temperature at 10 uM by SYPRO Orange-dye based fluorescence thermal shift assay
[20] = target: T4, Transcription initiation factor TFIID subunit 1-like; assay: Inhibition of TAF1L BD2 (unknown origin) assessed as change in melting temperature at 10 uM by SYPRO Orange-dye based fluorescence thermal shift assay
[21] = target: Bromodomain-containing protein 2 (Homo sapiens) (UniProt P25440); assay: Inhibition of BRD2 BD1 (unknown origin) assessed as change in melting temperature at 10 uM by SYPRO Orange-dye based fluorescence thermal shift assay
Sequence of Bromodomain-containing protein 2 (Homo sapiens) (P25440 whole entry, looked up, the tested form may be a part): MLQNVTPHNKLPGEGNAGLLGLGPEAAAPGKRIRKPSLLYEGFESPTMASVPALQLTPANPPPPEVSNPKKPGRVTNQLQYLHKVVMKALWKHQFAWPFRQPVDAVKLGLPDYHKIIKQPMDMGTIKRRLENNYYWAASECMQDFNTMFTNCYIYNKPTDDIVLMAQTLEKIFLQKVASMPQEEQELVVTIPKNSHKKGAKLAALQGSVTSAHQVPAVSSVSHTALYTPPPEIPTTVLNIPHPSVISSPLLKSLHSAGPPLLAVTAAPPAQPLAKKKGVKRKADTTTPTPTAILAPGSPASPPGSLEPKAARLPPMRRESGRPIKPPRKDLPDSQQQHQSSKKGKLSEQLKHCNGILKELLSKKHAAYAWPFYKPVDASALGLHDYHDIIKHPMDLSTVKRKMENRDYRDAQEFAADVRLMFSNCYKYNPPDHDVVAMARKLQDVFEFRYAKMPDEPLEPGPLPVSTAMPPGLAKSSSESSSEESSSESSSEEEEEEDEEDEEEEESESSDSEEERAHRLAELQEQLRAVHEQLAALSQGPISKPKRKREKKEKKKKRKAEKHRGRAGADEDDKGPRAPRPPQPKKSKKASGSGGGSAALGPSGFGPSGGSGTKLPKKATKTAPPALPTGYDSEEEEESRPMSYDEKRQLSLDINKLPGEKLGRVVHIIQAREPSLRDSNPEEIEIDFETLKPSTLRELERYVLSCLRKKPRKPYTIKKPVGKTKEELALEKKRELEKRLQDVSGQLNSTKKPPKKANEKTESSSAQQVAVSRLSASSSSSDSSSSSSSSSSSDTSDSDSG

[22] = target: Bromodomain adjacent to zinc finger domain protein 1A (Homo sapiens) (UniProt Q9NRL2); assay: Inhibition of BAZ1A (unknown origin) assessed as change in melting temperature at 10 uM by SYPRO Orange-dye based fluorescence thermal shift assay
[23] = target: Tyrosine-protein kinase BAZ1B (Homo sapiens) (UniProt Q9UIG0); assay: Inhibition of BAZ1B (unknown origin) assessed as change in melting temperature at 10 uM by SYPRO Orange-dye based fluorescence thermal shift assay
Peregrin (Homo sapiens) [24] = target: T5, Peregrin (Homo sapiens); assay: Inhibition of BRPF1B (unknown origin) assessed as change in melting temperature at 10 uM by SYPRO Orange-dye based fluorescence thermal shift assay
[25] = target: CREB-binding protein (Homo sapiens) (UniProt Q92793); assay: Inhibition of human CREBBP (R1081 to G1197 residues) expressed in bacterial expression system at 100 nM by BROMOScan assay
Sequence of CREB-binding protein (Homo sapiens) (Q92793 2-2442 limits assumed): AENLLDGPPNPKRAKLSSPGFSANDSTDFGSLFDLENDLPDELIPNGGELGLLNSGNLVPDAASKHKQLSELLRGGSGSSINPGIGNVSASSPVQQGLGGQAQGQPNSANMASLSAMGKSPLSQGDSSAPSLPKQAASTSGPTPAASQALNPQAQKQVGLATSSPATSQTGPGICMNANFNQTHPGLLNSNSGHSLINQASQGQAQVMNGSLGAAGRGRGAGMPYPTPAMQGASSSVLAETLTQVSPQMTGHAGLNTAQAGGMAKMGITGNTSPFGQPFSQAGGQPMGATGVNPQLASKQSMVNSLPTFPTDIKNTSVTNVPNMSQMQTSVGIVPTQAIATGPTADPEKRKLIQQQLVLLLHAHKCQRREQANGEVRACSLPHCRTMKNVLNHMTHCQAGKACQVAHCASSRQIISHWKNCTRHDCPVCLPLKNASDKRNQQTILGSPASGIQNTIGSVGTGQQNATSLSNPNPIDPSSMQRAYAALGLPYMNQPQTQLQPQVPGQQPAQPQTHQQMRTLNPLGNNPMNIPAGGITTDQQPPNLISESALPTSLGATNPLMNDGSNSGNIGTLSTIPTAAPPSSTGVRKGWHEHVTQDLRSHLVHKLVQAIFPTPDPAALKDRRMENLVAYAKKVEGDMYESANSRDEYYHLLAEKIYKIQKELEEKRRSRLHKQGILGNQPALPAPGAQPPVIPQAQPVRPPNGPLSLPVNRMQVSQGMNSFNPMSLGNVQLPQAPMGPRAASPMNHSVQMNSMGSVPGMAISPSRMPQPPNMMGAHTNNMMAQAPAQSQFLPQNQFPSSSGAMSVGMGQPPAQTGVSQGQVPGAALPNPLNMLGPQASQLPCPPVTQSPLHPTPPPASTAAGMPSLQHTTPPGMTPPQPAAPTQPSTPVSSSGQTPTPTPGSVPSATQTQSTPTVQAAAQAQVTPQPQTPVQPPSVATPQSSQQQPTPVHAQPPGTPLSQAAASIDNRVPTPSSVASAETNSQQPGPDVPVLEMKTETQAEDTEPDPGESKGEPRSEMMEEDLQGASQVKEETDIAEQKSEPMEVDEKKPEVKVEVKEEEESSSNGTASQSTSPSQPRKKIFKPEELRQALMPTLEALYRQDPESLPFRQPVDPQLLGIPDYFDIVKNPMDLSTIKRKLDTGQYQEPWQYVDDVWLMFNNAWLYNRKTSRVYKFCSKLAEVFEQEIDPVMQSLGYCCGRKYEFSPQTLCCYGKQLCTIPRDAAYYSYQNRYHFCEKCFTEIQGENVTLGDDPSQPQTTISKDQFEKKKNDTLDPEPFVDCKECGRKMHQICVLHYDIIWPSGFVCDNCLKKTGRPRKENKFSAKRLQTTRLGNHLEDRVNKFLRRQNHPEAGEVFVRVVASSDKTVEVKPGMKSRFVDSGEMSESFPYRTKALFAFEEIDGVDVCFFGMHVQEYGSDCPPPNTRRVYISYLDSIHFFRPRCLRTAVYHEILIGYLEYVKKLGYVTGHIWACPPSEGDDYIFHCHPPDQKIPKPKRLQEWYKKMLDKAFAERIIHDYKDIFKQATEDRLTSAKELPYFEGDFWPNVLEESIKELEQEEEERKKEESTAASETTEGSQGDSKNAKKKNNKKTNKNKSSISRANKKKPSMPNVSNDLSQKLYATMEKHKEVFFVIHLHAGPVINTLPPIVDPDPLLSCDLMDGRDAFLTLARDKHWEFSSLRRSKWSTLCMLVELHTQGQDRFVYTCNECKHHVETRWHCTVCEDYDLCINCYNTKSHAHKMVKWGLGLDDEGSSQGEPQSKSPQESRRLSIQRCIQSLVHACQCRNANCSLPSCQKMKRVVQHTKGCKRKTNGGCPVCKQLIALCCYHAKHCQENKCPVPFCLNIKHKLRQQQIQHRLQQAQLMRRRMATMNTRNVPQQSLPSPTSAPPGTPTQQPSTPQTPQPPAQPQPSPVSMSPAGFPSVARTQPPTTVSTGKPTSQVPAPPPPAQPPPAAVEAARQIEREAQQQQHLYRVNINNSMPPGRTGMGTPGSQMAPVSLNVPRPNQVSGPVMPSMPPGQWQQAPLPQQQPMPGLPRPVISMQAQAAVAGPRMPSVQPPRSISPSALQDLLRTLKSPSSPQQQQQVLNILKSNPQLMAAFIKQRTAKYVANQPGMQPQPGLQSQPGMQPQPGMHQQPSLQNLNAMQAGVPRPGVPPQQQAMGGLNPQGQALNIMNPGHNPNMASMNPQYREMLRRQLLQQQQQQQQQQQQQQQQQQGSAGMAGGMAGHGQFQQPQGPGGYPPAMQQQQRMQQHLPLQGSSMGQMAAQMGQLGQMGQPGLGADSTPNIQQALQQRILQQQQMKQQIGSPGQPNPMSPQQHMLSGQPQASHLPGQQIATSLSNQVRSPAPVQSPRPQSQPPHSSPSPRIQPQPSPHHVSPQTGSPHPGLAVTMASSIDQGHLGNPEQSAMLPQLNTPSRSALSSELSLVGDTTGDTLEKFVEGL

Peregrin (Homo sapiens) [26] = target: T5, Peregrin (Homo sapiens); assay: Inhibition of BRPF1A (unknown origin) assessed as change in melting temperature at 10 uM by SYPRO Orange-dye based fluorescence thermal shift assay
[27] = target: Nucleosome-remodeling factor subunit BPTF (Homo sapiens) (UniProt Q12830); assay: Inhibition of FALZ (unknown origin) assessed as change in melting temperature at 10 uM by SYPRO Orange-dye based fluorescence thermal shift assay
[28] = target: CREB-binding protein (Homo sapiens) (UniProt Q92793); assay: Inhibition of His-tagged CREBBP (unknown origin) at 100 nM using biotin-acetylated histone H4 peptide as substrate after 30 mins by AlphaScreen assay relative to control
[29] = target: PH-interacting protein (Homo sapiens) (UniProt Q8WWQ0); assay: Inhibition of PHIP BD2 (unknown origin) assessed as change in melting temperature at 10 uM by SYPRO Orange-dye based fluorescence thermal shift assay
[30] = target: Transcription intermediary factor 1-alpha (Homo sapiens) (UniProt O15164); assay: Inhibition of TIF1-phd-bromo (unknown origin) assessed as change in melting temperature at 10 uM by SYPRO Orange-dye based fluorescence thermal shift assay

In the case of Cc1cc2c(cc1N1C(=O)c3cccc4c(Cl)ccc(c34)C1=O)n(C)c(=O)n2C, the IC50 [1] is reported as 675 nM, the Activity [2] is reported as “inactive” and the IC50 [3] is reported as 15000 to 20000 nM. For the same compound, the Activity [4] was “inactive”, the Activity [5] was “inactive” and the IC50 [6] was 8 nM. The solubility [7] was “Insoluble”, the inhibition (Peregrin (Homo sapiens) [8]) was “inactive” and the Activity [9] was “inactive”. For the same compound, the deltaTm [10] was 6.2 K, the IC50 [11] was 37 nM and the IC50 (Peregrin) was 547 nM. The IC50 [12] was > 10100 nM.

With CCCNc1ccc2c3c(cccc13)C(=O)N(c1cc3c(cc1C)n(C)c(=O)n3C)C2=O the IC50 [3] was > 15000 nM, the Ratio IC50 (Homo sapiens) was 118 and the IC50 [6] was 3 nM. It also gave a solubility [7] of 0.1 µg/mL (≈ 0.233 µM), an IC50 [11] of 121 nM and an IC50 (Peregrin) of 14200 nM. For the same compound, the IC50 [12] was > 13900 nM.

Compound Cc1cc2c(cc1N1C(=O)c3cccc4c(CCCO)ccc(c34)C1=O)n(C)c(=O)n2C has a deltaTm [13] of 1.5 K, a deltaTm [14] of 1.5 K and a deltaTm [15] of 3.4 K. It also gave a deltaTm [16] of 0.7 K, a deltaTm [17] of 1.7 K and a deltaTm [18] of 1.5 K. For the same compound, the deltaTm [19] was 1.6 K, the deltaTm [20] was 4.8 K and the deltaTm [21] was 3.2 K. For the same compound, the deltaTm [9] was 3.2 K, the deltaTm [22] was 0.8 K and the deltaTm [23] was 0.6 K. The deltaTm (Peregrin (Homo sapiens) [24]) was 2.4 K, the inhibition [25] was 30% and the deltaTm (Peregrin (Homo sapiens) [26]) was 0.8 K. For the same compound, the deltaTm [27] was 2.8 K, the inhibition [28] was 41% and the deltaTm [29] was 1.1 K. For the same compound, the deltaTm [30] was 0.6 K.
